Reference: the supplement of paper PMC4862054

Assays:
Test in all cases: drug sensitivity score (DSS), CellTiter-Glo (DSS (AUC-based score)); higher = stronger drug effect (viability inhibition or cytotoxicity); extreme values may be limits of the assay
Settings in all cases: incubation time: 72 h
[1] = tested on: BT-474
Summary of the method: (§1)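 After 72 h of incubation in 384-well plates with compound at 5 concentrations (10-fold steps, 10,000-fold range set per compound), breast cancer cell lines seeded in 20 µl suspension were read first for CellTox Green fluorescence at 485/520 nm. CellTiter-Glo luminescence was measured next, after 10 min at room temperature. Normalisation on each plate used 0.1 % DMSO and a positive kill control, and the drug sensitivity score was computed from the area under the fitted dose-response curve.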

[2] = tested on: BT-549
Summary of the method: as §1

[3] = tested on: CAL-120
Summary of the method: as §1

[4] = tested on: CAL-148
Summary of the method: as §1

[5] = tested on: CAL-51
Summary of the method: as §1

[6] = tested on: CAL-85-1
Summary of the method: as §1

[7] = tested on: DU-4475
Summary of the method: as §1

[8] = tested on: HCC1143
Summary of the method: as §1

[9] = tested on: HCC1599
Summary of the method: as §1

[10] = tested on: HCC1937
Summary of the method: as §1

[11] = tested on: HDQ-P1
Summary of the method: as §1

[12] = tested on: Hs578T
Summary of the method: as §1

[13] = tested on: MCF-10A
Summary of the method: as §1

[14] = tested on: MDA-MB-231
Summary of the method: as §1

[15] = tested on: MDA-MB-436
Summary of the method: as §1

[16] = tested on: MDA-MB-453
Summary of the method: as §1

[17] = tested on: MDA-MB-468
Summary of the method: as §1

[18] = tested on: MFM-223
Summary of the method: as §1

[19] = tested on: SK-BR-3
Summary of the method: as §1

Row | SMILES | drug sensitivity score [1] | drug sensitivity score [2] | drug sensitivity score [3] | drug sensitivity score [4] | drug sensitivity score [5] | drug sensitivity score [6] | drug sensitivity score [7] | drug sensitivity score [8] | drug sensitivity score [9] | drug sensitivity score [10] | drug sensitivity score [11] | drug sensitivity score [12] | drug sensitivity score [13] | drug sensitivity score [14] | drug sensitivity score [15] | drug sensitivity score [16] | drug sensitivity score [17] | drug sensitivity score [18] | drug sensitivity score [19]
1 | CCn1c(C(=O)N(C2CC2)C2CC2)cc2c3c(ncn3C)c(Nc3cc(C)n(C)n3)nc21 | 0 | 0 | 0 | 0 | 0 | 0 | 0 | 0 | 0 | 0 | 0 | 0 | 0 | 0 | 0 | 0 | 0.0233 | 0 | 0
2 | COc1ccc(S(=O)(=O)Nc2cccnc2Nc2ccc(O)cc2)cc1 [ABT-751] | 6.74 | 9.41 | 7.83 | 3.29 | 2.26 | 12.2 | 5.29 | 6.19 | 11.2 | 2.93 | 5.44 | 10.9 | 2.74 | 7.19 | 11.4 | 10.5 | 12 | 7.28 | 13.1
3 | CN[C@@H](C)C(=O)N[C@H]1CN(C(=O)CC(C)C)CC[C@H]2CC[C@@H](C(=O)NC(c3ccccc3)c3ccccc3)N2C1=O [AT-406] | 20.1 | 17.3 | 0 | 0 | 0 | 7.99 | 0 | 0 | 0 | 0 | 2.18 | 0 | 0 | 16 | 0 | 4.36 | 4.99 | 0 | 0
4 | Cc1cc(Nc2nc(N[C@@H](C)c3ncc(F)cn3)ncc2Cl)[nH]n1 [AZD1480] | 0 | 0 | 0 | 0 | 0 | 0 | 0 | 0 | 0 | 0 | 0 | 0 | 0 | 0 | 0 | 0 | 0 | 5.17 | 0
5 | CNC(=O)c1ccccc1Sc1ccc2c(/C=C/c3ccccn3)n[nH]c2c1 [Axitinib] | 0 | 1.06 | 1.6 | 0 | 9.31 | 0 | 0 | 0 | 2.21 | 0 | 1.23 | 0 | 0 | 0 | 1.91 | 0 | 4.94 | 8.4 | 0
6 | CC(O)(CS(=O)(=O)c1ccc(F)cc1)C(=O)Nc1ccc(C#N)c(C(F)(F)F)c1 (centres undefined) [Bicalutamide] | 0 | 0 | 0 | 0 | 0 | 0 | 0 | 0 | 0 | 0 | 0 | 0 | 0 | 0 | 0 | 0.186 | 0 | 0 | 0
7 | CCNC(=O)CCC/C=C\C[C@@H]1[C@@H](/C=C/[C@@H](O)CCc2ccccc2)[C@H](O)C[C@@H]1O [Bimatoprost] | 0 | 0 | 0 | 0 | 0 | 0 | 0 | 0 | 0 | 0 | 0 | 0 | 0 | 0 | 0 | 0 | 0 | 0 | 0
8 | COc1cc(Nc2c(C#N)cnc3cc(OCCCN4CCN(C)CC4)c(OC)cc23)c(Cl)cc1Cl [Bosutinib] | 6.85 | 4.99 | 5.53 | 1.7 | 7.53 | 9.16 | 0 | 3.67 | 5.58 | 7.57 | 11.3 | 0.947 | 15.1 | 8.52 | 7.31 | 5.47 | 8.1 | 4.34 | 5.72
9 | CCN(CC)CCCC(C)Nc1ccnc2cc(Cl)ccc12 (centres undefined) [Chloroquine] | 9.59 | 9.55 | 11.1 | 10.1 | 13.3 | 11 | 8.35 | 4.28 | 9.72 | 9.1 | 7.81 | 5.84 | 8.64 | 9.09 | 9.03 | 15.7 | 10.8 | 9.76 | 14.7
10 | CC1(COc2ccc3c(c2)ncn3-c2ccc3cccc(N4CCC(N)CC4)c3n2)COC1 [Crenolanib] | 4.44 | 7.22 | 0 | 4.01 | 6.45 | 4.49 | 4.23 | 0 | 0.696 | 0.864 | 3.33 | 4.07 | 3.64 | 4.35 | 4.37 | 3.06 | 3.61 | 0 | 4.21
11 | CC(C)(C)c1nc(-c2cccc(NS(=O)(=O)c3c(F)cccc3F)c2F)c(-c2ccnc(N)n2)s1 [Dabrafenib] | 0 | 0 | 8.71 | 0 | 0 | 0 | 19 | 0 | 0 | 0 | 0 | 0.389 | 0 | 0 | 0 | 0 | 0 | 0 | 0
